From BindingDB's records for doi:10.1021/jm7014149 (Vu University Amsterdam, 2008) come the findings set out here.

Common to all, as to details: pH 7.4; 25 °C
Assay [1] concerns the target T1, Histamine H3 receptor (Homo sapiens, UniProt Q9Y5N1). The assay can be described thus: Radioligand Binding Assay and Functional [35S]GTP-gamma-S Binding Assay. As for the experimental part:
Ligand displacement assays were performed on CHO cells membranes expressing hH3R. Retained radioactivity was determined by liquid scintillation counting. Nonspecific binding was determined in the presence of 1 uM thioperamide. The Ki values were calculated based on an experimentally determined appropriate Kd value according to Cheng and Prusoff. EC50 is a measure of functional property of compound on [35S]GTP-gamma-S binding to membranes expressing H3R receptors.

The target in another assay is Histamine H4 receptor (Homo sapiens, UniProt Q9H3N8). Description: H4R Radioligand Binding Assay. How it is done:
Ligand displacement assays were performed on CHO cells membranes expressing hH4R. Retained radioactivity was determined by liquid scintillation counting. Nonspecific binding was determined in the presence of 10 uM histamine. The Ki values were calculated based on an experimentally determined appropriate Kd value according to Cheng and Prusoff.

The target in assay [2] is T1, Histamine H3 receptor. The assay can be described thus: H3R Radioligand Binding Assay.

pKi: −log10 of the molar value.

T1 sequence (Q9Y5N1 whole entry): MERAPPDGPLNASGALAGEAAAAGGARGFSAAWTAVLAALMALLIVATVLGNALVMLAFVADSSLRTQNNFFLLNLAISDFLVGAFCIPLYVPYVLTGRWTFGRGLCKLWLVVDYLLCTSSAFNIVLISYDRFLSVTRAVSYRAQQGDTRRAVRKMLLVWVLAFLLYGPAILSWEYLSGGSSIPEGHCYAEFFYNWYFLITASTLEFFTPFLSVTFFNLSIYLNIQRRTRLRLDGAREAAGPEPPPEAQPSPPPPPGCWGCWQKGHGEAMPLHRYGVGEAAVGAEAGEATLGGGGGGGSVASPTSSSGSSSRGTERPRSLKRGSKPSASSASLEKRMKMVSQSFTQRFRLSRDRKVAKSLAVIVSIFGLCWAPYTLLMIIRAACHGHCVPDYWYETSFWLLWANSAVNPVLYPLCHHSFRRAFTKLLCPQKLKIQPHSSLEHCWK
Chain of Histamine H4 receptor (Q9H3N8 whole entry): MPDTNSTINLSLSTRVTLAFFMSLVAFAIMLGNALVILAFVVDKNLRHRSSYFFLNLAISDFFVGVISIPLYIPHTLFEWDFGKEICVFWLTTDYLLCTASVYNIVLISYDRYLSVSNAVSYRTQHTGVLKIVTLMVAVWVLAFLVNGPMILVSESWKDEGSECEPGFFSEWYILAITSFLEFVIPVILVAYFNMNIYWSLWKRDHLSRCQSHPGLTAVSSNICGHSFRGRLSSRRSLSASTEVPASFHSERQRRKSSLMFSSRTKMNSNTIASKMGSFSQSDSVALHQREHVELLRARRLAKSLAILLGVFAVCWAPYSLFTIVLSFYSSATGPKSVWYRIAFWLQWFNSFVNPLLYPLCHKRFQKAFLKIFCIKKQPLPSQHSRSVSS

For `CC(C)(C)C#Cc1cccc(Cc2c[nH]cn2)c1` [4-{[3-(3,3-dimethylbut-1-yn-1-yl)phenyl]methyl}-1H-imidazole], the pKi on Histamine H3 receptor [1] is 8.40; on Histamine H4 receptor, 8.22.

The molecule `CC1CC(C)(C)N=C(c2cccc(Cc3c[nH]cn3)c2)O1` (stereo unspecified) [2-[3-(1H-imidazol-4-ylmethyl)phenyl]-4,4,6-trimethyl-5,6-dihydro-4H-1,3-oxazine] had a pKi on Histamine H3 receptor [1] of 9.00.

`CC(C)(C)CC(=O)c1cccc(Cc2cnc[nH]2)c1` [1-[3-(1H-imidazol-4-ylmethyl)phenyl]-3,3-dimethylbutan-1-one]: the pKi on Histamine H4 receptor was 8.22.

Turning to `C(#Cc1cccc(Cc2cnc[nH]2)c1)c1ccccc1` [4-{[3-(2-phenylethynyl)phenyl]methyl}-1H-imidazole], at Histamine H3 receptor [2], the pKi is 8.70.

The molecule `CCCC#Cc1cccc(Cc2c[nH]cn2)c1` [4-{[3-(pent-1-yn-1-yl)phenyl]methyl}-1H-imidazole] showed a pKi on Histamine H3 receptor [2] of 8.52.

A word on the pKi: it is the Ki on a negative log10 scale, so that one unit is a factor of ten.
